Data published in patent US20120178815A1, “Compositions of (-)-E-10-OH-NT and Methods for Their Synthesis and Use” (Adolor Corporation, priority 2007, published 2012).
“And” between values parts separate entries of the source, which are not always exact repeats. Identical values can stand only once. “Also recorded” adds a separate entry of the source. Like-named read-outs stand apart in the source and are kept apart here.

Experiments:
[1] = target: T1, DA uptake, rat striatum synaptosomes (Rattus norvegicus, UniProt P23977); experiment: Inhibition of [3H]-DA uptake into synaptosomes; format: biochemical; conditions: for inhibition at 10 µM: read-out: Monoamine Uptake Inhibition, DA, % inhib. at 10 μM; for IC50: read-out: Monoamine Uptake Inhibition, DA, IC50
T1 construct: into rat striatum synaptosomes; from tissue; host or cells: rat striatum synaptosomes
T1 sequence (P23977 whole entry): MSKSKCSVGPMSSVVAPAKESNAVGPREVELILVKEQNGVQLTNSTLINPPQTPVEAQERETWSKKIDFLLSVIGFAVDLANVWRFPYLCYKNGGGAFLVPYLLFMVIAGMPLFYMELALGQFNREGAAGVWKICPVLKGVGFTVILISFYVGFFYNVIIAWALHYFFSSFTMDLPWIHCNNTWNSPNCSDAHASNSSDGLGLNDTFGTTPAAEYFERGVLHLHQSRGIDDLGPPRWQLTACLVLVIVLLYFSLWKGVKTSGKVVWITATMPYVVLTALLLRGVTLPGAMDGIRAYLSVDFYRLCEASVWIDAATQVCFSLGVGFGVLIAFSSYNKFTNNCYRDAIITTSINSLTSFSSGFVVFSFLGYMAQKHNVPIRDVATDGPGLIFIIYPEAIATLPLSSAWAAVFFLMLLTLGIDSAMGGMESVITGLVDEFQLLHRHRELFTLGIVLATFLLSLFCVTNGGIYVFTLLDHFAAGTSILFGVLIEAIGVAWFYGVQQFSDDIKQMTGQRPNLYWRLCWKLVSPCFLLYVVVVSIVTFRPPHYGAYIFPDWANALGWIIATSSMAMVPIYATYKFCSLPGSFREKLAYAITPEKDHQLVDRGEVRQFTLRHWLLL

[2] = target: T2, human muscarinic receptor M4 (Homo sapiens, UniProt P08173); experiment: Muscarinic M4 receptor binding, [3H]4-DAMP; conditions: read-out: Affinity for Muscarinic Receptors, M4, Ki
T2 construct: expressed in transfected cells; host or cells: CHO cells (membranes)
T2 sequence (P08173 1-479): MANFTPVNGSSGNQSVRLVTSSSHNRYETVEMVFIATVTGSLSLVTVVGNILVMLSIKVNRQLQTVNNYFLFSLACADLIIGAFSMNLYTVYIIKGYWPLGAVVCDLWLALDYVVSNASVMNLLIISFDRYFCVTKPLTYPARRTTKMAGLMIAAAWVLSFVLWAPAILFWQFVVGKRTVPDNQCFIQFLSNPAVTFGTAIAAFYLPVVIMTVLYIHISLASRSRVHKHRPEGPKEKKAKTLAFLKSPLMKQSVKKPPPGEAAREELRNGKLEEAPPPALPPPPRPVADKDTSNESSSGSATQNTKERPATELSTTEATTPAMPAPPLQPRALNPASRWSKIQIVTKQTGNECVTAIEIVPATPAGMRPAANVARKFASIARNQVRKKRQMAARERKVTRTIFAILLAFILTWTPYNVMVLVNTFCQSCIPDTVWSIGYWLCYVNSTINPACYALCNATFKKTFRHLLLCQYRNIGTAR
Method: Protocol. […] Bound radioactivity was determined by scintillation spectroscopy. Non-specific binding was defined as the amount of bound radioligand in the presence of 1.0 μM atropine. Radioligand for the M1 receptor was [^3H]pirenzepine (2 nM). Radioligand for the M2 receptor was [^3H]AF-DX384 (2 nM). Radioligand for the M3, M4, and M5 receptors was [^3H]4-DAMP.

hERG = hERG (Homo sapiens, UniProt Q12809); experiment: hERG channel inhibition; format: biochemical; conditions: cloned hERG channel α subunit (expression host not stated), 10 μM test compound, read-out: percent inhibition of hERG channels
Chain of hERG (Q12809 whole entry): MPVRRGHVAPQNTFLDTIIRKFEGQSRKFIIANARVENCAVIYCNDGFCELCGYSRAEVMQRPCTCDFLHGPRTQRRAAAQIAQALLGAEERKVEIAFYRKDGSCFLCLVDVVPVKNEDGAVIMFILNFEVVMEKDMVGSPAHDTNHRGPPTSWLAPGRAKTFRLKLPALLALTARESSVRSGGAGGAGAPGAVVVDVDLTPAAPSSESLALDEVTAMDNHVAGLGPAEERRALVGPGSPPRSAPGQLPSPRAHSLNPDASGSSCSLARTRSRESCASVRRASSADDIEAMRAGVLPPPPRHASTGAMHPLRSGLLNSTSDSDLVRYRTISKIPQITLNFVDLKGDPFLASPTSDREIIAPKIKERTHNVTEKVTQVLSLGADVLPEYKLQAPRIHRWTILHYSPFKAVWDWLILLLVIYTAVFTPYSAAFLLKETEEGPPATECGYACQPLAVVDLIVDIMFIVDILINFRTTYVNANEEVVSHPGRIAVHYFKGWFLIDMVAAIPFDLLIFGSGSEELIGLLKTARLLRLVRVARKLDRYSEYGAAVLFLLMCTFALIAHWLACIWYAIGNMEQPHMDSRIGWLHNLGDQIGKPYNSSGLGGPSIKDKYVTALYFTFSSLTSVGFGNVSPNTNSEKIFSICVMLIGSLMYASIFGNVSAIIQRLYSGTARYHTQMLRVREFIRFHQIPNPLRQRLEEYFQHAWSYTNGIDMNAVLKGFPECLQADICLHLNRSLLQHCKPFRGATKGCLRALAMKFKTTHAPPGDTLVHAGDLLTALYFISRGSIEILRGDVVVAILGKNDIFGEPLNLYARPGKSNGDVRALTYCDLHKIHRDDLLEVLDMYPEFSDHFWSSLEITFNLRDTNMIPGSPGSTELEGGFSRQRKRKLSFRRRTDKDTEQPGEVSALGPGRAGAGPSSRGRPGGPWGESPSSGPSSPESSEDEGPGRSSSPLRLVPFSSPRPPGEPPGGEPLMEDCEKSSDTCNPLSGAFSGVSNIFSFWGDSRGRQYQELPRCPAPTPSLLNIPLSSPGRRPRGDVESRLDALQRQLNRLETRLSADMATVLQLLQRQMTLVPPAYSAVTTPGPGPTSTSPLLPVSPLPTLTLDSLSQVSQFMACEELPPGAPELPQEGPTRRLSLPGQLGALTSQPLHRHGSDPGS

[3] = test system: rotarod performance in rats; experiment: Rat rotarod assay of sedation; format: in vivo; conditions: for peak deficit in rotarod performance: 30 mg/kg, i.p., peak at 30 minutes; for ED50 for impairment of rotarod performance: IP
Method: Protocol. The rat rotarod assay is commonly used to assess sedation associated with chemical drugs. […] Once the rats were in position, the timers were set to zero and the rotarod switched to accelerating mode. The rotarod accelerated from 4 to 40 rpm over a five-minute interval. The timers automatically turned off when the rats fell from the rotating drum, recording a latency to fall in seconds. […] The performance score was recorded in seconds for each interval. The baseline rotarod performance score was the latency to fall off the rotarod on the third training session. Baselines must have been greater than or equal to 60 seconds duration for the rat to be included in the experiment.

[4] = test system: FCA-induced mechanical hyperalgesia in rats; experiment: Rat FCA-induced mechanical hyperalgesia assay (paw pressure threshold); format: in vivo; conditions: for antihyperalgesia (% AH): 1 hour after treatment; for antihyperalgesia (% AH) / antihyperalgesic activity (% AH): 24 h FCA-treated rats; for antihyperalgesic activity (% AH): 60 mg/kg IP; for antihyperalgesic activity (% AH) / ED50 for reversal of mechanical hyperalgesia: 1 h posttreatment; for ED50 for reversal of mechanical hyperalgesia: response at 60 mg/kg IP taken as maximal response (100%)
Method: Protocol. […] Dosage amounts are based on the amount of free base. For the assay, the methods of DeHaven-Hudkins et al., 1999 were used to determine mechanical hyperalgesia in rats 24 hours after intraplantar administration of 150 μL Freund's Complete Adjuvant (FCA). To determine paw pressure thresholds, the rats were lightly restrained in a gauze wrap and pressure was applied to the dorsal surface of the inflamed and uninflamed paw with a conical piston using a pressure analgesia apparatus (Stoelting Instruments, Wood Dale, Ill.). The paw pressure threshold was defined as the amount of force (in grams) required to elicit an escape response using a cutoff value of 250 grams.
Paw pressure thresholds were measured 1 h posttreatment.
Protocol. […] For comparison, sterile water vehicle was tested as a negative control. The methods of DeHaven-Hudkins et al., 1999 were used to determine mechanical hyperalgesia in rats 24 hours after intraplantar administration of 150 μL Freund's Complete Adjuvant (FCA). To determine paw pressure thresholds, the rats were lightly restrained in a gauze wrap and pressure was applied to the dorsal surface of the inflamed and uninflamed paw with a conical piston using a pressure analgesia apparatus (Stoelting Instruments, Wood Dale, Ill.). The paw pressure threshold was defined as the amount of force (in grams) required to elicit an escape response using a cutoff value of 250 grams.
Paw pressure thresholds were determined 1, 2, or 4 hours after administration using the methods disclosed in Examples 5 and 18.
Accordingly, rats were treated with sterile water vehicle, 30, or 60 mg/kg IP twenty-four hours after administration of FCA.

α1b adrenergic receptor = target: T3, α1b adrenergic receptor (Homo sapiens, UniProt P35368); experiment: α1b adrenergic receptor binding, [3H]prazocine
T3 construct: expressed in transfected cells; host or cells: CHO cells (membranes)
T3 sequence (P35368 1-520): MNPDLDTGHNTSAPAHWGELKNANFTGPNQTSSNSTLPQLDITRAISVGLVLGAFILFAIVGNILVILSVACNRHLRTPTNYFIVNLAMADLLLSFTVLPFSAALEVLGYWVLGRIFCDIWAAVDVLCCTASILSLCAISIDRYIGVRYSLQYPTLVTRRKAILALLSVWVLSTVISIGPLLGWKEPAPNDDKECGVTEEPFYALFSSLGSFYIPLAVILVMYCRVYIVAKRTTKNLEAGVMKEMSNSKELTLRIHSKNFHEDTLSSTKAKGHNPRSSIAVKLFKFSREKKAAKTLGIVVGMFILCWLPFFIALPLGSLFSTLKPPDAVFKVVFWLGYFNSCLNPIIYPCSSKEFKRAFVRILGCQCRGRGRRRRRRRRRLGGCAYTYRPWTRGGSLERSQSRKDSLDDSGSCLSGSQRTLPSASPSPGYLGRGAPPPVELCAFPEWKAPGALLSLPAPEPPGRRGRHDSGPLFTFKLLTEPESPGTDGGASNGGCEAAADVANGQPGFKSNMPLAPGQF
Method: Affinity for the α1b adrenergic receptor was tested using membranes prepared from Chinese hamster ovary (CHO) cells heterologously expressing the cloned human receptor that were incubated with [^3H]prazocine (0.15 nM) in the presence of various concentrations of test compounds for 1 hour at 22° C. Nonspecific binding was determined in the presence of 10 μM phentolamine. Bound radioactivity was determined by scintillation spectroscopy.

[5] = read-out: Affinity at α1b adrenergic receptor, Ki

| Compound | inhibition at 10 µM [1] | IC50 [1] | Ki [2] | inhibition at 10 µM (hERG) | impairment of rotarod performance ([3]; 30 mg/kg IP, rats (Example 17)) | peak deficit in rotarod performance ([3]; rats) | ED50 for impairment of rotarod performance ([3]; rats) | antihyperalgesia (% AH) ([4]; 30 mg/kg IP) | antihyperalgesic activity (Example 5) ([4]; 30 mg/kg, i.p.) | antihyperalgesic activity (% AH) [4] | antihyperalgesic activity, orally-administered ([4]; oral administration) | ED50 for reversal of mechanical hyperalgesia [4] | Ki (α1b adrenergic receptor; [5]) | antihyperalgesic activity, time course ([4]; 30 mg/kg IP, 1, 2, or 4 hours after administration) | maximal impairment of rotarod performance ([3]; 100 mg/kg IP, rats) | Ki (α1b adrenergic receptor) |
| --- | --- | --- | --- | --- | --- | --- | --- | --- | --- | --- | --- | --- | --- | --- | --- | --- |
| CNCC/C=C1\c2ccccc2C[C@@H](O)c2ccccc21 (stereo in doubt) [(−)-E-10-OH-NT] | 16% | > 1000 nM | 170 nM | 6% | 5% | no impairment in rotarod performance; also recorded: no significant impairment in performance; also recorded: no impairment of performance | 120 mg/kg IP | 55±7 % AH | robust antihyperalgesic activity | 270±53 % AH | significant activity | 36 mg/kg IP | 2600 nM |  |  |  |
| CNCC/C=C1\c2ccccc2C[C@H](O)c2ccccc21 (stereo in doubt) [(+)-E-10-OH-NT] | 19% | > 1000 nM | 390 nM | 8.8% |  |  |  | not antihyperalgesic |  | 40±13 % AH |  |  | 690 nM | not antihyperalgesic at any time point tested |  |  |
| CN(C)CCC=C1c2ccccc2CCc2ccccc21 [AT, amitriptyline, reference compound] |  | 2400 nM | 3.6 nM |  |  | 51±20% | 27 mg/kg IP |  |  | 259±39 % AH |  | 38 mg/kg IP | 5.9 nM |  | 96% |  |
| CNCCC=C1c2ccccc2CCc2ccccc21 [NT, nortriptyline, reference compound] |  | 1700 nM |  | 55.1% |  | 60±14% and 60±40% |  |  |  |  |  |  |  |  |  | 21 nM |
